The values that follow are results of earlier work, collected in patent US5116619A, “Vaginal progesterone tablet” (priority 1988, dated 1992).

`CC(=O)[C@H]1CC[C@H]2[C@@H]3CCC4=CC(=O)CC[C@]4(C)[C@H]3CC[C@]12C` [progesterone, pregn-4-ene-3,20-dione]: the plasma half-life result (endogenous progesterone) is “a few minutes”. For the same compound, the “administered radiolabeled progesterone in feces” value (feces) is “about 10%”. The “serum levels after oral administration” value (in vivo, po) is given as “significant but highly variable serum levels”. Where the note is “intravenous injections”, the first half-life was 5 to 6 min and the second half-life is 42 to 45 min. The “local tolerability of deep intramuscular injections” value (parenteral, site of injection) was “often very painful and irritating at the site of injection”. The “absorption by the rectal route” value (rectal, Steege et al.) is recorded as “highly variable”. For the same compound, the “time in which all exogenous progesterone is metabolized” value (suggested by Myers et al.) is ≤ 24 h. Further, the “administered radiolabeled progesterone in urine” value (urine) is 50 to 60%.
